Data on two molecules can be found in patent US9266835B2, “Quinoline derivatives useful as CB-1 inverse agonists” (JANSSEN PHARMACEUTICA NV, priority 2014, dated 2016).

Like-named read-outs stand apart in the source and are kept apart here.

The term EC50 denotes the concentration needed to bring the measured effect to its halfway point. Read a high EC50 as weaker potency.

Series [1] has as its target Human CB1R (Cannabinoid receptor 1) (Homo sapiens (Human), UniProt P21554). The experiment in a line: CB-1 in vitro cAMP assay (HTRF), inverse agonism. It is filed as cell-based. As to conditions: mean where tested more than once.
Series [2] can be described thus: Mouse Fast PK/BBB (plasma and brain concentration). The series is classed as in vivo. The following applies: male, C57bl/6j, oral, N=3 (dose given as 30 mg/kg and 20 mg/kg). From the text:
Male Sprague Dawley rats were ordered from Charles River (225-250 gm upon arrival). They were fed standard chow diet (Purina 5001) and housed 2 per cage. Male C57bl/6j mice were ordered from Charles River at 22-25 g and housed 3 per cage. They were fed standard chow (Purina 5001). All animals were housed in a temperature-controlled room with 12-hour light/dark cycle. Animals were given food and water ad libitum, except as noted.
Test compounds were formulated in 10% PEG400 and 10% solutol. Test compounds were administered by oral gavage (5 ml kg^−1).
Male C57bl/6j mice were dosed with test compounds at 30 mg/kg. Plasma was collected via retro-orbital bleeding at 1 hr and 4 hrs after dosing. Whole brain without cerebellum was collected at 4 hrs after dosing. Wet brain weight was recorded before freezing. Brains were homogenized in saline and sent for analysis for determination of concentration of test compound.
Table BIO-3 below present results for representative compounds of the present invention, tested according to the procedure as described above. Each compound was tested in three animals (N=3) and administered PA at 20 mg/kg

Series [3] in a line: Mouse Fast PK/BBB (plasma and brain concentration). The series is classed as in vivo. The following applies: oral, N=3 (dose given as 30 mg/kg and 20 mg/kg).
In series [4] the target is Human CB2R (Cannabinoid receptor 2) (Homo sapiens (Human), UniProt P34972). Nature of the series: CB-2 in vitro cAMP assay (HTRF), inverse agonism. The following applies: mean where tested more than once. The series is classed as cell-based. (In general: Changes in cAMP serve as a functional read-out for many G protein-coupled receptors.)
Sequence of Human CB2R (Cannabinoid receptor 2) (P34972 whole entry): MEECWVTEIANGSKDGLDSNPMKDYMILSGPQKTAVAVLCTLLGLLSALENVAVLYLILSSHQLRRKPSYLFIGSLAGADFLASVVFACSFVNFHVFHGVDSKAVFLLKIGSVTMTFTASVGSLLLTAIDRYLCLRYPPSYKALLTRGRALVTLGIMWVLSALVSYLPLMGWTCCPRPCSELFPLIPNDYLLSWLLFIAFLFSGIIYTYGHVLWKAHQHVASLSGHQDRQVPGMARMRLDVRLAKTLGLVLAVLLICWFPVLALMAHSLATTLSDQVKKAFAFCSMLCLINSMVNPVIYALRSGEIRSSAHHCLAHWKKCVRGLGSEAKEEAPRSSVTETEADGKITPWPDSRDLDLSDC
The mark [5] stands for this setting: brain, read-out: BRAIN Mean Conc. ± Std. Dev.
Where [6] appears, read: plasma, read-out: PLASMA Mean Conc. ± Std. Dev.

Sequence of Human CB1R (Cannabinoid receptor 1) (P21554 whole entry): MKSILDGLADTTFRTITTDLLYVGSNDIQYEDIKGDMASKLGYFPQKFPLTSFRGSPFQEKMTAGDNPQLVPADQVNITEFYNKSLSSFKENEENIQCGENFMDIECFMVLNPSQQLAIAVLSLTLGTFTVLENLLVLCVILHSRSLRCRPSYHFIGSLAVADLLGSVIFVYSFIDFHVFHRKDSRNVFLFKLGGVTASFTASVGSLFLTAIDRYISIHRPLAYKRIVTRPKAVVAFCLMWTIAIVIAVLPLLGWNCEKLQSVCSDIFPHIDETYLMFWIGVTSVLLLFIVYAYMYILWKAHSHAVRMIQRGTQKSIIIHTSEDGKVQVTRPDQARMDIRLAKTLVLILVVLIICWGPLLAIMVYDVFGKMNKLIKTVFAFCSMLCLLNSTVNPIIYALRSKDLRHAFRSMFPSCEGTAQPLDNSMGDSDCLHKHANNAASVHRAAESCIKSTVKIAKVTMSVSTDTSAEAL

Turning to `O=c1cc(NC2CCN(S(=O)(=O)C(F)(F)F)CC2)c2cc(C(c3ccc(Cl)cc3)c3nccs3)ccc2[nH]1` (stereo not drawn) [Compound #41, 6-((4-chlorophenyl)(thiazol-2-yl)methyl)-4-((1-((trifluoromethyl)sulfonyl)piperidin-4-yl)amino)quinolin-2(1H)-one], the half-maximal effective concentration (EC50) in series [1] amounted to 15 nM; in series [4], 8150 nM. In addition, the results for the concentration at 4 h in series [2] (setting [5]) and in series [2] (setting [6]) were 0 ng/mL and 291 ± 90.5 ng/mL, respectively. Also, the concentration at 1 h in series [2] (setting [6]) was found to be 714 ± 188 ng/mL; in series [3] (male, C57bl/6j, brain, read-out: BRAIN Mean Conc. ± Std. Dev) it was 7.43 ng/mL.

As for `O=c1cc(Nc2ccc(C(F)(F)F)cc2)c2cc(C(c3ccc(Cl)cc3)c3ccc(Cl)cc3)ccc2[nH]1` [Compound #59, 6-(bis(4-chlorophenyl)methyl)-4-((4-(trifluoromethyl)phenyl)amino)quinolin-2(1H)-one], the EC50 in series [1] was 7 nM; in series [4] it was above 10000 nM. For the same molecule, the concentration at 4 h was 59.7 ± 9.55 ng/mL in series [2] (setting [5]) and 1610 ± 563 ng/mL in series [2] (setting [6]). Moreover, in series [2] (setting [6]), the concentration at 1 h came out at 2320 ± 1020 ng/mL. In addition, in series [3] (1 hr), the “BRAIN Mean Conc. ± Std. Dev” value is given as “BLOQ ± NA”.
